# Results published in US20250275976A1, “Methods of Treating Neuroinflammatory Conditions” (Athira Pharma, Inc., priority 2022, published 2025).
# Where two headings read alike, the source gives them in different places.
# Assays:
# [1] = test system: THP-1-differentiated macrophages; assay: Pro-inflammatory cytokines in supernatants of LPS-challenged THP-1-differentiated macrophages; format: cell-based, human; parameters: key to Significant reduction in pro-inflammatory cytokine expression: IL-6 / Significant reduction in pro-inflammatory cytokine expression: TNF-α / Significant reduction in pro-inflammatory cytokine expression: IL-1β: “NS” indicates a non-significant reduction in the indicated cytokine; “+” indicates a p value <0.05 in Tukey post test; “++” indicates a p value <0.01 in Tukey post test; details: for Significant reduction in pro-inflammatory cytokine expression: IL-1β / Significant reduction in pro-inflammatory cytokine expression: IL-6 / Significant reduction in pro-inflammatory cytokine expression: TNF-α: LPS 24 hrs
# From the text: Neuroinflammation plays a crucial role in disease progression and is a complex phenomenon involving various cells that affect many extra- and intracellular signaling pathways and cytokine production. The macrophage of the brain (microglia) is the main agent of innate immunity in the CNS and performs various functions, including neuroprotection, in response to inflammatory signals. Activated microglia participate in developing neuroinflammation, responding to toxic exogenous substances (like LPS) or endogenous substances (like amyloid-beta). Here, THP-1 cells were used as an in-vitro cell model to evaluate mechanisms relevant to CNS inflammation. Differentiation with phorbol-12-myristate-13-acetate (PMA) causes THP-1 monocyte cells to acquire functional and morphological resemblance to macrophages. LPS interacts with THP-1 differentiated macrophage through the toll-like receptor 4, triggering the inflammatory response and stimulating pro-inflammatory cytokine release and eventually leading to cellular death. Test compounds were investigated for whether they have anti-inflammatory effects on LPS-challenged macrophage cultures. THP-1-differentiated macrophages were treated with test compounds for 20 minutes, followed by 24 hrs of LPS challenge. Culture supernatants were then collected to analyzed for the presence of pro-inflammatory cytokines: interleukin 1β (IL--1β), interleukin 6 (IL-6) and tumor necrosis factor α (TNF-α).
# Cytokine quantification in cell culture supernatants was accomplished by homogeneous time resolved fluorescence (HTRF) kits to assess levels of IL-1β (Human IL-1β kit, #62HIL1BPEG, Cisbio) and IL-6 (Human IL-6 kit, 62HILO6PET, Cisbio), and by ELISA (Human TNF-α ELISA kit, KHC3011, ThermoFisher) to determine the levels of TNF-α.
# Data analysis was performed via 1-way ANOVA with Tukey post-test compared to LPS treatment cultures using Prism statistical software (GraphPad). Tabular data indicates significance of reduction in culture supernatants for the indicated analyte at the indicated dose.
# [2] = test system: Rat primary cortical neuron cultures; assay: Neuroprotection of rat primary cortical neurons against neurotoxic insults (Cell Titer-Glo viability); format: cell-based
# From the text: HGF/MET signaling activation is expected to protect cells, including neurons, from cell death. […] Hydrogen peroxide (H2O2) treatment produces toxic oxidative stress. Bacteria-derived lipopolysaccharide (LPS) treatment induces inflammatory cell death. Treatment with excess glutamate (Glut) produces excitotoxicity in neuron cultures. Treatment with 1-methyl-4-phenylpyridinium (MPP^+) causes cell death by inhibition of mitochondrial function.
# Cells were then subjected to individual conditional insults for 24 hours at the following concentrations: H2O2 at 1 uM, LPS at 1 uM, glutamate at 25 uM, or MPP+ at 500 uM. All treatments contained recombinant human HGF (R&D Systems) at a concentration of 5 ng/ml. MK-801 (Dizocilpine) is a pore blocker of the N-Methyl-D-aspartate (NMDA) receptor, a glutamate receptor, and was used as a positive control.
# Data was normalized to DMSO+HGF control set at 100% cell viability.
# Data are reported as statistical significance vs. insult control, with NS=not significant, +=p<0.05, ++=p<0.01, and +++=p<0.001.
# [3] = test system: Rat primary cortical neuron cultures; details: LPS 24 h
# Protocol: (§1) To assess the neuroprotective effect of compound treatment against inflammatory insult, primary cultured cortical neurons were subjected to lipopolysaccharide (LPS) treatment for 24h along with various compound doses of compounds of Formula (I) or Compound A19. […] Rat primary cortical neuron cultures were grown at 37° C., 5% C02 in Complete Neurobasal Medium supplemented with B27/GDNF/BDNF containing 10% FBS until maturity. 25 μl of culture volume were seeded in a 384-well plate at 5,000 cells/well, and treated with 1 μM, 100 nM, 10 nM, 1 nM, or 0.1 nM of test compound for 15 minutes. Cells were then subjected to 1 μM LPS challenge for 24 hours. Luminescence measurements to assess relative levels of ATP were performed on an Envision plate reader (Perkin Elmer). Data for DMSO control were set to 100% cell viability, and each group (n=4) were averaged and presented as mean±SEM.
# [4] = test system: Rat primary cortical neuron cultures; assay: Neuroprotection of rat cortical neurons against LPS challenge (Cell Titer-Glo); details: at at least one dose tested
# Protocol: as §1
compound,measurement,setting,value
CCC(C)CN1CC2N(C(=O)c3ccc(C(F)(F)F)cc3)CCC(=O)N2[C@@H](C)C1=O (stereo partly shown) [Compound 1a],Expression of IL-1β and TNF-α (result in words),[1]; at at least one tested dose,significantly reduced
same,Expression of IL-6 (result in words),[1]; at at least one tested dose,significantly reduced
same,Significant reduction in pro-inflammatory cytokine expression: IL-1β,[1]; dose 0.1 nM,++ (“++” indicates a p value <0.01 in Tukey post test)
same,Significant reduction in pro-inflammatory cytokine expression: IL-6,[1]; dose 0.1 nM,NS
same,Significant reduction in pro-inflammatory cytokine expression: TNF-α,[1]; dose 0.1 nM,++ (“++” indicates a p value <0.01 in Tukey post test)
same,Significant reduction in pro-inflammatory cytokine expression: IL-1β,[1]; dose 10 nM,++ (“++” indicates a p value <0.01 in Tukey post test)
same,Significant reduction in pro-inflammatory cytokine expression: IL-6,[1]; dose 10 nM,++ (“++” indicates a p value <0.01 in Tukey post test)
same,Significant reduction in pro-inflammatory cytokine expression: TNF-α,[1]; dose 10 nM,++ (“++” indicates a p value <0.01 in Tukey post test)
same,Significant reduction in pro-inflammatory cytokine expression: IL-1β,[1]; dose 1000 nM,++ (“++” indicates a p value <0.01 in Tukey post test)
same,Significant reduction in pro-inflammatory cytokine expression: IL-6,[1]; dose 1000 nM,+ (“+” indicates a p value <0.05 in Tukey post test)
same,Significant reduction in pro-inflammatory cytokine expression: TNF-α,[1]; dose 1000 nM,++ (“++” indicates a p value <0.01 in Tukey post test)
same,Statistical significance vs. insult control (cell viability),"[2]; Glutamate (25 uM) insult, [Compound 1a] 0.1 nM + HGF (5 ng/ml)",+++ (+++=p<0.001)
same,Statistical significance vs. insult control (cell viability),"[2]; Glutamate (25 uM) insult, [Compound 1a] 1 nM + HGF (5 ng/ml)",+++ (+++=p<0.001)
same,Statistical significance vs. insult control (cell viability),"[2]; Glutamate (25 uM) insult, [Compound 1a] 100 nM (second column headed 100 nM) + HGF (5 ng/ml)",+++ (+++=p<0.001)
same,Statistical significance vs. insult control (cell viability),"[2]; Glutamate (25 uM) insult, [Compound 1a] 100 nM + HGF (5 ng/ml)",+++ (+++=p<0.001)
same,Statistical significance vs. insult control (cell viability),"[2]; Glutamate (25 uM) insult, [Compound 1a] 1 uM + HGF (5 ng/ml)",+++ (+++=p<0.001)
same,Statistical significance vs. insult control (cell viability),"[2]; H2O2 (1 uM) insult, [Compound 1a] 0.1 nM + HGF (5 ng/ml)",+++ (+++=p<0.001)
same,Statistical significance vs. insult control (cell viability),"[2]; H2O2 (1 uM) insult, [Compound 1a] 1 nM + HGF (5 ng/ml)",+++ (+++=p<0.001)
same,Statistical significance vs. insult control (cell viability),"[2]; H2O2 (1 uM) insult, [Compound 1a] 100 nM (second column headed 100 nM) + HGF (5 ng/ml)",+++ (+++=p<0.001)
same,Statistical significance vs. insult control (cell viability),"[2]; H2O2 (1 uM) insult, [Compound 1a] 100 nM + HGF (5 ng/ml)",+++ (+++=p<0.001)
same,Statistical significance vs. insult control (cell viability),"[2]; H2O2 (1 uM) insult, [Compound 1a] 1 uM + HGF (5 ng/ml)",+++ (+++=p<0.001)
same,Neuroprotection against the cohort of insults (result in words),"[2]; H2O2, glutamate, LPS, MPP+, broad range of concentrations",effective neuroprotective treatment at a broad range of concentrations against the entire cohort of insults tested
same,Statistical significance vs. insult control (cell viability),"[2]; LPS (1 uM) insult, [Compound 1a] 0.1 nM + HGF (5 ng/ml)",+++ (+++=p<0.001)
same,Statistical significance vs. insult control (cell viability),"[2]; LPS (1 uM) insult, [Compound 1a] 100 nM (second column headed 100 nM) + HGF (5 ng/ml)",+++ (+++=p<0.001)
same,Statistical significance vs. insult control (cell viability),"[2]; LPS (1 uM) insult, [Compound 1a] 100 nM + HGF (5 ng/ml)",+++ (+++=p<0.001)
same,Statistical significance vs. insult control (cell viability),"[2]; LPS (1 uM) insult, [Compound 1a] 1 uM + HGF (5 ng/ml)",+++ (+++=p<0.001)
same,Statistical significance vs. insult control (cell viability),"[2]; MPP+ (500 uM) insult, [Compound 1a] 0.1 nM + HGF (5 ng/ml)",+++ (+++=p<0.001)
same,Statistical significance vs. insult control (cell viability),"[2]; MPP+ (500 uM) insult, [Compound 1a] 1 nM + HGF (5 ng/ml)",+++ (+++=p<0.001)
same,Statistical significance vs. insult control (cell viability),"[2]; MPP+ (500 uM) insult, [Compound 1a] 100 nM (second column headed 100 nM) + HGF (5 ng/ml)",+++ (+++=p<0.001)
same,Statistical significance vs. insult control (cell viability),"[2]; MPP+ (500 uM) insult, [Compound 1a] 100 nM + HGF (5 ng/ml)",+++ (+++=p<0.001)
same,Statistical significance vs. insult control (cell viability),"[2]; MPP+ (500 uM) insult, [Compound 1a] 1 uM + HGF (5 ng/ml)",+++ (+++=p<0.001)
same,Significance of neuroprotection vs 1 uM LPS,[3]; dose 0.1 nM,+++ (+++ indicates p<0.001)
same,Significance of neuroprotection vs 1 uM LPS,[3]; dose 1 nM,+++ (+++ indicates p<0.001)
same,Significance of neuroprotection vs 1 uM LPS,[3]; dose 10 nM,+++ (+++ indicates p<0.001)
same,Significance of neuroprotection vs 1 uM LPS,[3]; dose 100 nM,+++ (+++ indicates p<0.001)
same,Significance of neuroprotection vs 1 uM LPS,[3]; dose 1 μM,+++ (+++ indicates p<0.001)
same,Protection of primary neurons from LPS-stimulated inflammatory toxicity (in words),[4],protected primary neurons from LPS-stimulated inflammatory toxicity
